From paper PMC7876453, “Targeting Indoleamine 2,3-Dioxygenase in Cancer Models Using the Novel Small Molecule Inhibitor NTRC 3883-0” (Frontiers in Immunology, 2021)
Where two headings read alike, the source gives them in different places.

Legend:
[1] = test system: unstimulated adherent cell samples isolated from ascites of ovarian cancer patients; test: Trp-catabolizing activity in unstimulated ascites cell samples; type: cell-based, human; conditions: for IC50: Homo sapiens
Method: Ascites was collected from patients with a primary diagnosis of advanced epithelial ovarian cancer during paracentesis for diagnostics or symptom relieve, or during primary debulking surgery. Ascites was filtered and cells were collected by centrifugation as described ([23]). To enrich for tumor cells, ascites cell samples were allowed to adhere overnight to tissue culture plastic. The cell samples were then cultured for 2–3 weeks in advanced RPMI medium (ThermoFisher), supplemented with 10% FBS, 1% glutamax and 1% P/S, with 2 or 3 times passaging of the cells. qPCR analyses of the MUC16, HE4, IDO1, and TDO2 genes were performed for all samples as described above. Five samples which could be cultured over multiple passages were analyzed for cell surface expression of mucin-16 and EpCAM by flow cytometry using FITC-conjugated anti-mucin-16 (AssayPro, #32189-05141) and APC-conjugated anti-EpCAM (Miltenyi, #130-111-117, RRID: AB_2657496) to assure that the cell cultures consisted of malignant cells. IDO1 mRNA and protein levels in these samples were analyzed as described above after incubation with or without 200 ng/ml IFNγ for 24 h. The collection of ascites and the research described was conducted with approval of the medical ethical committee of the Radboud university medical center and informed written consent from each subject.

[2] = in vivo pharmacokinetics, rat; design: species or system Wistar rats; conditions: Wistar, plasma; for clearance / Vd: intravenous; for Vd: read-out: Vss
Method: (§1) Pharmacokinetic properties of NTRC 3883-0 were determined in plasma following single oral (p.o.) and i.v. administration to male CD-1 mice (n = 6 per treatment group with three mice sampled per time point), Wistar rats (n = 3), cynomolgus monkey (n = 1) and Beagle dogs (n = 3). Formulations were prepared in DMSO, Kolliphor® EL, 5% D-mannitol in Elix water at a volume ratio of 1:1:8 for i.v. administration, and in 0.5% gelatin, 5% D-mannitol in Elix water for p.o. administration. Plasma samples were collected at eight to eleven time points up to 24 h after administration. Pharmacokinetic properties and required dosing in humans were predicted by allometric scaling by Karin Jorga Life Science Consulting (Basel, Switzerland) ( Figure S2 and Table S2 ).

HEK-hTDO = HEK-hTDO (Homo sapiens, UniProt P48775); test: cell-based assay, Trp-catabolizing activity in HEK-hTDO cells
Sequence of HEK-hTDO (P48775 whole entry): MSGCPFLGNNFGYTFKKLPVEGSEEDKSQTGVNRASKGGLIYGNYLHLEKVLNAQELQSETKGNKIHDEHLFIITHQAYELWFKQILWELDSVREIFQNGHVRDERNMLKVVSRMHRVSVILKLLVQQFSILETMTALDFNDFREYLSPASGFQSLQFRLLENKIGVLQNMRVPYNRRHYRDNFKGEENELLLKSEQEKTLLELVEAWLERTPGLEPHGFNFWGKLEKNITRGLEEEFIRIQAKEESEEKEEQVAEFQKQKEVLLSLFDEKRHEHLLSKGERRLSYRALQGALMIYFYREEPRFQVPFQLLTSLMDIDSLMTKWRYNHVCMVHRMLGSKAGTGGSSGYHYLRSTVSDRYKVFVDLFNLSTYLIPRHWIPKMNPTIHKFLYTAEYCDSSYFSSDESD

[3] = in vivo pharmacokinetics, monkey; conditions: cynomolgus monkey, plasma; for clearance / Vd: intravenous; for Vd: read-out: Vss
Method: as §1

CYP3A4 = target: T1, CYP3A4 (Homo sapiens, UniProt P08684); test: CYP3A4 inhibition (P450-Glo); type: in vitro ADME; conditions: 10 µM
T1 construct: purchased Promega V9920
T1 sequence (P08684 whole entry): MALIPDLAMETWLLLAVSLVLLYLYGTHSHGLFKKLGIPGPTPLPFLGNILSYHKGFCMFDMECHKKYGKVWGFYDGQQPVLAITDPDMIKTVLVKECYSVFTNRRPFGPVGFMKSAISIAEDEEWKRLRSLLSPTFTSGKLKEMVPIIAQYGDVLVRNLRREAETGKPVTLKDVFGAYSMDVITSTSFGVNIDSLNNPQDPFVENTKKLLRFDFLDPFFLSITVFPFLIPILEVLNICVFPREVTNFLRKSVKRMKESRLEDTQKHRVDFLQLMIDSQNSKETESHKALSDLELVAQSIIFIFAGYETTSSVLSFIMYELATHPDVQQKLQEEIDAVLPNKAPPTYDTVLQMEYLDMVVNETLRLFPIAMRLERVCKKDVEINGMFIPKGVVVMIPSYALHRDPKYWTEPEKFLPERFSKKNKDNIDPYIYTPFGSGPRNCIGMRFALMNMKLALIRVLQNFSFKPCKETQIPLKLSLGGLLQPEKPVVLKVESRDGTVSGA
Method: (§2) Full-length recombinant human and mouse IDO1 were expressed in Escherichia coli with a hexahistidine tag at the N-terminus, and purified by affinity chromatography to > 95% purity, as described ([8]). Human and mouse TDO containing a C-terminal hexahistidine tag were analogously expressed and purified to > 95% purity ([8]). The inhibitory activity of compounds was determined with the NFK GreenScreen assay technology under the conditions as described ([8]), except for the reaction buffer for IDO1, which was replaced by 50 mM NaH2PO4, pH 7.0, supplemented with 0.01% Tween-20 and 1% glycerol. Inhibition of the CYP3A4 and CYP2D6 enzymes was determined with the P450-Glo™ Screening System with Luciferin-IPA (Promega, #V9920 and V9890). For determination of IC50 values, the effect of inhibitors was determined in 10-point duplicate dose-response curves. Graphs were fitted to a four-parameter logistics equation in XLfit (ID Business Solutions, Ltd., Guildford, UK) from which IC50 values were calculated.

HEK-hIDO1 = HEK-hIDO1 (Homo sapiens, UniProt P14902); test: cell-based assay, Trp-catabolizing activity in HEK-hIDO1 cells
Sequence of HEK-hIDO1 (P14902 whole entry): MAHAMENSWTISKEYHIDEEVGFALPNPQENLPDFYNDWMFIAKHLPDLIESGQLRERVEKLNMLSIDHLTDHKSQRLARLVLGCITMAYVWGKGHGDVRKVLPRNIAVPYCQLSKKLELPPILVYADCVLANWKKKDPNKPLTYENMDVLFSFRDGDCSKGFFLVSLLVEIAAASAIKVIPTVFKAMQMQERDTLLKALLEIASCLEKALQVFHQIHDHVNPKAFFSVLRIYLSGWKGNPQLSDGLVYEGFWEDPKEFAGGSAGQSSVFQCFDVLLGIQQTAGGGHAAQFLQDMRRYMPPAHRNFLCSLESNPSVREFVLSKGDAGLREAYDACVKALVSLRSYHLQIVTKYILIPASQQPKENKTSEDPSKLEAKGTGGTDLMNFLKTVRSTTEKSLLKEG

mIDO1 = target: T2, mIDO1 (Mus musculus, UniProt P28776); test: mouse IDO1 biochemical assay (NFK GreenScreen)
T2 construct: Full-length recombinant human and mouse IDO1 were expressed in Escherichia coli with a hexahistidine tag at the N-terminus; hexahistidine (N); made in house; host or cells: Escherichia coli
T2 sequence (P28776 whole entry): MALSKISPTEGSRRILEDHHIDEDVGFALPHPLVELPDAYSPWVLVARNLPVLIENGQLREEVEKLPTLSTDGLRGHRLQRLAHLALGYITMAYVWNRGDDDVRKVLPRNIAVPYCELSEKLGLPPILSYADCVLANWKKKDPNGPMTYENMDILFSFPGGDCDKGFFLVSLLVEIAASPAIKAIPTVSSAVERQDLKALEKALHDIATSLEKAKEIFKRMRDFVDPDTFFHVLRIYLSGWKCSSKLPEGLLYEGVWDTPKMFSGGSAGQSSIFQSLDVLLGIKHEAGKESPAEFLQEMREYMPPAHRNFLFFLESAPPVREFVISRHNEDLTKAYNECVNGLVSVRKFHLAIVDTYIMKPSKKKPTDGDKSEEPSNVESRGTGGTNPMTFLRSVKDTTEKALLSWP

[4] = plasma protein binding, rat; type: in vitro ADME
Method: Supplement DataSheet_1.docx, table 2: Table S2. Pharmacokinetic parameters of NTRC 3883-0 observed in mouse, rat, monkey and dog, and predicted for humans using allometric scaling. Data in bold are measured, while data in italics are calculated or predicted (for humans). The clearance (Cl) and volume of distribution at steady state (Vss | column: Rat

mTDO = target: T3, mTDO (Mus musculus, UniProt P48776); test: mouse TDO biochemical assay (NFK GreenScreen); conditions: biochemical; @ 31,600 nM
T3 construct: hexahistidine (C); made in house; host or cells: Escherichia coli
T3 sequence (P48776 whole entry): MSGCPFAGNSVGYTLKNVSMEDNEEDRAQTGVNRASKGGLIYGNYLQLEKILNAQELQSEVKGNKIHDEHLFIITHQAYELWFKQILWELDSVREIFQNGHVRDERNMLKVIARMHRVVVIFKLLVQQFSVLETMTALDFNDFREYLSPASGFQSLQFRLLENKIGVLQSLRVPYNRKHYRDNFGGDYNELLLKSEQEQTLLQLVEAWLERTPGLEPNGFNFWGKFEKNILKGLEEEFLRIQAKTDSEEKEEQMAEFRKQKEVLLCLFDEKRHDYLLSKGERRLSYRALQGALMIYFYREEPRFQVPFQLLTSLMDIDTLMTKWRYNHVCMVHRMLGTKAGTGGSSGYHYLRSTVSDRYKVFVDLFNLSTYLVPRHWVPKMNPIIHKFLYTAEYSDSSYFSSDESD
Method: as §2

CYP2D6 = target: T4, CYP2D6 (Homo sapiens, UniProt P10635); test: CYP2D6 inhibition (P450-Glo); type: in vitro ADME; conditions: 10 µM
T4 construct: purchased Promega V9890
T4 sequence (P10635 whole entry): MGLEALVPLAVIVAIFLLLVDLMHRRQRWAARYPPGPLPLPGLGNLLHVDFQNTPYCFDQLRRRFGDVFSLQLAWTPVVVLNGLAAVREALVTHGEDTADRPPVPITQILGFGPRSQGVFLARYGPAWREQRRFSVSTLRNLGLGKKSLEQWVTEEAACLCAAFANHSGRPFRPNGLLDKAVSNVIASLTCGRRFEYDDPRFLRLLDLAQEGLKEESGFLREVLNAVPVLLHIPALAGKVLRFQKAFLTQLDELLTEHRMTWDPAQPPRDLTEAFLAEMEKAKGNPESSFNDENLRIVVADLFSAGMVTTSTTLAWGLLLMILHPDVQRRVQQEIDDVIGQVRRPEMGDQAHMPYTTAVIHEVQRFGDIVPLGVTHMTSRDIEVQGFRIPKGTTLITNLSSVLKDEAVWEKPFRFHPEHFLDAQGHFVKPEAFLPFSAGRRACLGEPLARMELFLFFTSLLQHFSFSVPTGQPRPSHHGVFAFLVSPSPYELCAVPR
Method: as §2

SW48 (hTDO) = target: T5, SW48 (hTDO) (Homo sapiens, UniProt P48775); test: cell-based assay, Trp-catabolizing activity in SW48 cells
T5 construct: host or cells: SW48 cells
T5 sequence (P48775 whole entry): as the sequence (P48775 whole entry) above

B16F10-mIDO1 = B16F10-mIDO1 (Mus musculus, UniProt P28776); test: cell-based assay, Trp-catabolizing activity in B16F10-mIDO1 cells
Sequence of B16F10-mIDO1 (P28776 whole entry, one chain of several): as the sequence (P28776 whole entry) above

[5] = test system: CT26 cells implanted subcutaneously into female BALB/c mice; test: CT26 mouse model, second study (Charles River); type: in vivo
Method: For the second study, performed at Charles River Laboratories, 3 × 10^5 CT26 cells were implanted subcutaneously into female BALB/c mice on day 0. […] Tumor growth was monitored using caliper measurement 3 times weekly. A tumor volume of 2000 mm^3 was used as the endpoint of the experiment for the individual animals. Tumors were sampled 2 h post last dose.
Tissues were homogenized in PBS at a ratio of 1 mg per 10 μl using micro pellet pestles mounted on a Micro-Tube Homogenizer System (Thomas Scientific). After centrifugation, proteins were removed from the homogenized tissue supernatants and plasma samples by precipitation with methanol. The concentrations of inhibitor, Trp and Kyn were determined by LC-MS/MS.

In the case of `O=C1CN(C(=O)c2c(F)cccc2F)[C@H](c2cccc(Br)c2)N1O` [NTRC 3883-0], the “inhibition of basal Trp-catabolizing activity (in words)” value [1] is reported as “no or only minimal inhibition”, the IC50 ([1]; mean of samples, read-out: IC50 Mean) is reported as over 31.6 µM and the IC50 ([1]; read-out: IC50 ASC 010) is reported as over 31.6 µM. For the same compound, the IC50 ([1]; read-out: IC50 ASC 013) was over 31.6 µM, the IC50 ([1]; read-out: IC50 ASC 031) was over 31.6 µM and the IC50 ([1]; read-out: IC50 ASC 041) was over 31.6 µM. The half-life [2] was 198 min, the clearance [2] was 19.1 mL/min/kg and the clearance ([2]; body weight 0.29 kg) was 5.52 mL/min. It also gave a Vd ([2]; body weight 0.29 kg) of 0.417 L, a Vd [2] of 1.43 L/kg and a bioavailability ([2]; po, p.o. versus i.v., read-out: Bioavailability (F)) of 91%. For the same compound, the “effect on Trp-catabolizing activity in HEK-hTDO cells (in words)” value (HEK-hTDO) was “no effect”, the inhibition at 31.6 µM (HEK-hTDO; read-out: inhibition HEK-hTDO) was under 20% and the half-life [3] was 144 min. It also gave a clearance [3] of 37 mL/min/kg, a clearance ([3]; monkey, body weight 3.0 kg) of 111 mL/min and a Vd ([3]; monkey, body weight 3.0 kg) of 6.74 L. For the same compound, the Vd [3] was 2.25 L/kg, the bioavailability ([3]; po, monkey, p.o. versus i.v., read-out: Bioavailability (F)) was 49% and the “inhibition of CYP3A4 activity” value (CYP3A4) was “did not inhibit”. The IC50 (HEK-hIDO1) was 119 nM, the IC50 (mIDO1) was 93 nM and the fraction unbound [4] was 0.15. The inhibition at 31.6 µM (mTDO) was under 20%, the “inhibition of CYP2D6 activity” value (CYP2D6) was “did not inhibit” and the inhibition at 31.6 µM (SW48 (hTDO); SW48, @ 31,600 nM) was under 20%. For the same compound, the “effect on Trp-catabolizing activity in SW48 (in words)” value (SW48 (hTDO); constitutively expresses TDO) was “no effect”, the IC50 (B16F10-mIDO1) was 18 nM and the “times more potent compared to epacadostat in B16F10-mIDO1 assay” value (B16F10-mIDO1) was 5 times. For the same compound, the tumor growth ([5]; 100 mg/kg p.o. b.i.d. from day 8) was “no inhibition of tumor growth” and the “Kyn levels in the tumor” value ([5]; LC-MS/MS, 2 h post last dose, 100 mg/kg p.o. b.i.d.) was “considerable reduction of Kyn levels”.
